Read-outs that look alike come from different tables or passages of the source.
Key:
delta opioid receptor = target: T1, delta opioid receptor (Rattus norvegicus, UniProt P33533); test: Rat Brain Delta Opioid Receptor Binding Assay
T1 construct: from tissue; host or cells: forebrain of male Wistar rats (particulate membrane preparation)
Method: Procedure: Male, Wistar rats (150-250 g, VAF, Charles River, Kingston, N.Y.) were killed by CO2, and their brains were removed and placed immediately in ice cold Tris HCl buffer (50 mM, pH 7.4). The forebrains were separated from the remainder of the brain by a coronal transection, beginning dorsally at the colliculi and passing ventrally through the midbrain-pontine junction. After dissection, the forebrains were homogenized in Tris buffer in a Teflon®-glass homogenizer. The homogenate was diluted to a concentration of 1 g of forebrain tissue per 80 mL Tris and centrifuged at 39,000×g for 10 min. The pellet was resuspended in the same volume of Tris buffer containing 5 mM MgCl2 with several brief pulses from a Polytron homogenizer. This particulate preparation was used for the delta opioid binding assays. Following incubation with the delta selective peptide ligand ˜4 nM [^3H]DPDPE or 0.15 nM [^3H]naltrindole at 25° C. for 2.5 h in a 96-well plate with total volume of […], the plate contents were filtered through Wallac filtermat B sheets on a Tomtec 96-well harvester. The filters were rinsed three times with 2 mL of 10 mM HEPES (pH 7.4), and dried in a 650 W microwave oven for 1.75 min twice. To each sample area 2×50 μL of Betaplate Scint scintillation fluid (LKB) was added and the radioactivity was quantified on a LKB (Wallac) 1205 BetaPlate liquid scintillation counter.
(§1) Analysis: The data from the scintillation counter was used to calculate either the % inhibition compared to control binding (when only a single concentration of test compound was evaluated) or a Ki value (when a range of concentrations was tested). Percent inhibition was calculated as: [(total dpm-test compound dpm)/(total dpm-nonspecific dpm)]*100. Kd and Ki values were calculated using GraphPad PRISM data analysis program.

mu opioid receptor = target: T2, mu opioid receptor (Rattus norvegicus, UniProt P33535); test: Rat Brain Mu Opioid Receptor Binding Assay
T2 construct: from tissue; host or cells: forebrain of male Wistar rats (particulate membrane preparation)
Method: Procedure: Male, Wistar rats (150-250 g, VAF, Charles River, Kingston, N.Y.) were killed by CO2, and their brains were removed and placed immediately in ice cold Tris HCl buffer (50 mM, pH 7.4). The forebrains were separated from the remainder of the brain by a coronal transection, beginning dorsally at the colliculi and passing ventrally through the midbrain-pontine junction. After dissection, the forebrains were homogenized in Tris buffer in a Teflon®-glass homogenizer. The homogenate was diluted to a concentration of 1 g of forebrain tissue per 80 mL Tris and centrifuged at 39,000×g for 10 min. The pellet was resuspended in the same volume of Tris buffer containing 5 mM MgCl2 with several brief pulses from a Polytron homogenizer. This particulate preparation was used for the mu opioid binding assays.
as §1

[1] = rat forebrain membranes, [3H]DPDPE or [3H]naltrindole, 25° C., 2.5 h, read-out: delta (Ki)
[2] = rat forebrain membranes, [3H]DAMGO, 25° C., 2.5 h, read-out: mu (Ki)

T1 sequence (P33533 whole entry): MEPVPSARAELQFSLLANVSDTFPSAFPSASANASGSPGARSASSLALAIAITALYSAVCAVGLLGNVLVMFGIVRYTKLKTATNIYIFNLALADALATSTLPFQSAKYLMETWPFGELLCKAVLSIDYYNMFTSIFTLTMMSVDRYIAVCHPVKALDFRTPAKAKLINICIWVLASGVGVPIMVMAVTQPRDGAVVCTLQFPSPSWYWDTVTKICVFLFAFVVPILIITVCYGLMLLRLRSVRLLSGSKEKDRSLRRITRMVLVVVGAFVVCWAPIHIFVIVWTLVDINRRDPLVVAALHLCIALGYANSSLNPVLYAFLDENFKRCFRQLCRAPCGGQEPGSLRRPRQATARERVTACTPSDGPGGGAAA
T2 sequence (P33535 whole entry): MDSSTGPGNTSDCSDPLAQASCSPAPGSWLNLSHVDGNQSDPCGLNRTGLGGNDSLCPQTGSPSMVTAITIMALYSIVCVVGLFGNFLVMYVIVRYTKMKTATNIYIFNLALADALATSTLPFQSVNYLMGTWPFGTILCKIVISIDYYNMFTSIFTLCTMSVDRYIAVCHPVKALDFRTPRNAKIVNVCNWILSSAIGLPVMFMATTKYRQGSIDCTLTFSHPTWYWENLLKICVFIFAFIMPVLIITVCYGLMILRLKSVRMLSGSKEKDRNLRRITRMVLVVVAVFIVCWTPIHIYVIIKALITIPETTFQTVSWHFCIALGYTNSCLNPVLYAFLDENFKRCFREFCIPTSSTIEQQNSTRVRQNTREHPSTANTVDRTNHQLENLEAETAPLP

| Structure (SMILES) | Ki (delta opioid receptor; [1]) | Ki (mu opioid receptor; [2]) | Ki (delta opioid receptor) | Ki (mu opioid receptor) |
| --- | --- | --- | --- | --- |
| CCN(CC)C(=O)c1ccc2c(c1)Oc1c(OC)cccc1C2C1CCNCC1 (stereo not shown) [6c, 5-Methoxy-9-piperidin-4-yl-9H-xanthene-3-carboxylic acid diethylamide] | 0.277 µM | > 10 µM | – | – |
| c1ccc2c(c1)Oc1cc(-c3ccncc3)ccc1C2C1CCN(Cc2ccoc2)CC1 (stereo not shown) [3h, 4-[9-(1-Furan-3-ylmethyl-piperidin-4-yl)-9H-xanthen-3-yl]-pyridine] | – | – | 0.791 µM | 4.26 µM |
| C=CCN1CCC(C2c3ccc(-c4cccnc4)cc3Oc3c(O)cccc32)CC1 (stereo not shown) [6i, 9-(1-Allyl-piperidin-4-yl)-6-pyridin-3-yl-9H-xanthen-4-ol] | – | – | 0.0275 µM | – |
| COc1cccc2c1Oc1cc(-c3ccncc3)ccc1C2C1CCNCC1 (stereo not shown) [8b, 4-(5-Methoxy-9-piperidin-4-yl-9H-xanthen-3-yl)-pyridine] | 0.619 µM | > 10 µM | – | – |
| CC(=O)Nc1ccccc1-c1ccc2c(c1)Oc1ccccc1C2C1CCN(CCc2ccccc2)CC1 (stereo not shown) [5g, N-{2-[9-(1-Phenethyl-piperidin-4-yl)-9H-xanthen-3-yl]-phenyl}-acetamide] | 4.57 µM | 0.995 µM | – | – |
| C=CCN1CCC(C2c3ccc(-c4ccccc4NC(C)=O)cc3Sc3c(O)cccc32)CC1 (stereo not shown) [16q, N-{2-[9-(1-Allyl-piperidin-4-yl)-5-hydroxy-9H-thioxanthen-3-yl]-phenyl}-acetamide] | 0.121 µM | – | – | – |
| CCN(CC)C(=O)c1ccc2c(c1)Oc1ccccc1C2C1CCN(Cc2ncc[nH]2)CC1 (stereo not shown) [13a, 9-[1-(1H-Imidazol-2-ylmethyl)-piperidin-4-yl]-9H-xanthene-3-carboxylic acid diethylamide] | – | – | 0.106 µM | 1.7 µM |
| CCN(CC)C(=O)c1ccc2c(c1)Oc1ccccc1C2C1CCN(CCc2ccccc2)CC1 (stereo not shown) [12a, 9-(1-Phenethyl-piperidin-4-yl)-9H-xanthene-3-carboxylic acid diethylamide] | – | – | 3.83 µM | 0.976 µM |
| Oc1cccc2c1Oc1cc(-c3cccnc3)ccc1C2C1CCNCC1 (stereo not shown) [3i, 9-Piperidin-4-yl-6-pyridin-3-yl-9H-xanthen-4-ol] | – | – | 0.242 µM | > 10 µM |
| CCN(CC)C(=O)c1ccc2c(c1)Oc1ccccc1C2C1CCN(C)CC1 (stereo not shown) [16a, 9-(1-Methyl-piperidin-4-yl)-9H-xanthene-3-carboxylic acid diethylamide] | – | – | 1.14 µM | 35.2 µM |
| O=C(c1ccc2c(c1)Oc1ccccc1C2C1CCN(Cc2ccoc2)CC1)N1CC[C@H](O)C1 (stereo partly drawn) [5n, [9-(1-Furan-3-ylmethyl-piperidin-4-yl)-9H-xanthen-3-yl]-(3-(S)-hydroxy-pyrrolidin-1-yl)-methanone] | 0.177 µM | > 10 µM | – | – |
| Oc1cccc2c1Sc1cc(-c3cccnc3)ccc1C2C1CCN(Cc2ccccn2)CC1 (stereo not shown) [18q, 6-Pyridin-3-yl-9-(1-pyridin-2-ylmethyl-piperidin-4-yl)-9H-thioxanthen-4-ol] | – | – | 0.0004 µM | – |
| Oc1cccc2c1Oc1cc(-c3cccnc3)ccc1C2C1CCN(Cc2ccccc2)CC1 (stereo not shown) [5i, 9-(1-Benzyl-piperidin-4-yl)-6-pyridin-3-yl-9H-xanthen-4-ol] | – | – | 0.094 µM | – |
| c1cncc(-c2ccc3c(c2)Oc2ccccc2C3C2CCNCC2)c1 (stereo not shown) [4f, 3-(9-Piperidin-4-yl-9H-xanthen-3-yl)-pyridine] | 0.161 µM | 1 µM | – | – |
| CCN(CC)C(=O)c1ccc2c(c1)Oc1ccccc1C2C1CCN(CC2CC2)CC1 (stereo not shown) [14a, 9-(1-Cyclopropylmethyl-piperidin-4-yl)-9H-xanthene-3-carboxylic acid diethylamide] | 1.08 µM | 6.99 µM | – | – |
| CCN(CC)C(=O)c1ccc2c(c1)Oc1ccccc1C2C1CCN(Cc2ccccn2)CC1 (stereo not shown) [11a, 9-(1-Pyridin-2-ylmethyl-piperidin-4-yl)-9H-xanthene-3-carboxylic acid diethylamide] | – | – | 2.7 µM | 15.1 µM |
| CCN(CC)C(=N)c1ccc2c(c1)Oc1ccccc1C2C1CCNCC1 (stereo not shown) [1p, N,N-Diethyl-9-piperidin-4-yl-9H-xanthene-3-carboxamidine] | – | – | 0.0511 µM | > 10 µM |
| c1ccc2c(c1)Oc1cc(-c3nnn[nH]3)ccc1C2C1CCN(Cc2ccoc2)CC1 (stereo not shown) [4l, 1-Furan-3-ylmethyl-4-[3-(1H-tetrazol-5-yl)-9H-xanthen-9-yl]-piperidine] | 0.498 µM | 6.32 µM | – | – |
| CCN(CC)C(=N)c1ccc2c(c1)Oc1ccccc1C2C1CCN(Cc2ccoc2)CC1 (stereo not shown) [3p, N,N-Diethyl-9-(1-furan-3-ylmethyl-piperidin-4-yl)-9H-xanthene-3-carboxamidine] | – | – | 0.0161 µM | – |

| Structure (SMILES) | Ki (delta opioid receptor; [1]) | Ki (mu opioid receptor; [2]) | Ki (delta opioid receptor) | Ki (mu opioid receptor) |
| --- | --- | --- | --- | --- |
| c1ccc2c(c1)Oc1cc(-c3ccncc3)ccc1C2C1CCNCC1 (stereo not shown) [2h, 4-(9-Piperidin-4-yl-9H-xanthen-3-yl)-pyridine] | 4.53 µM | > 10 µM | – | – |
| Oc1cccc2c1Sc1cc(-c3ccncc3)ccc1C2C1CCNCC1 (stereo not shown) [12q, 9-Piperidin-4-yl-6-pyridin-4-yl-9H-thioxanthen-4-ol] | – | – | 0.0007 µM | – |
| CC(=O)Nc1ccccc1-c1ccc2c(c1)Oc1c(O)cccc1C2C1CCNCC1 (stereo not shown) [4e, N-[2-(5-Hydroxy-9-piperidin-4-yl-9H-xanthen-3-yl)-phenyl]-acetamide] | – | 0.289 µM | 0.0381 µM | – |
| Oc1cccc2c1Sc1cc(-c3ccncc3)ccc1C2C1CCN(Cc2ccccn2)CC1 (stereo not shown) [15q, 6-Pyridin-4-yl-9-(1-pyridin-2-ylmethyl-piperidin-4-yl)-9H-thioxanthen-4-ol] | – | – | 0.0001 µM | – |
| N#Cc1ccc2c(c1)Oc1c(O)cccc1C2C1CCNCC1 (stereo not shown) [5r, 5-Hydroxy-9-piperidin-4-yl-9H-xanthene-3-carbonitrile] | 0.166 µM | – | – | – |
| CC(=O)Nc1ccccc1-c1ccc2c(c1)Oc1c(O)cccc1C2C1CCN(Cc2ccccn2)CC1 (stereo not shown) [5e, N-{2-[5-Hydroxy-9-(1-pyridin-2-ylmethyl-piperidin-4-yl)-9H-xanthen-3-yl]-phenyl}-acetamide] | – | – | 0.0001 µM | – |
| CCN(CC)C(=O)c1ccc2c(c1)Oc1ccccc1C2C1CCN(Cc2ccccc2)CC1 (stereo not shown) [10a, 9-(1-Benzyl-piperidin-4-yl)-9H-xanthene-3-carboxylic acid diethylamide] | – | – | 0.075 µM | 5.37 µM |
| CC(=O)Nc1ccccc1-c1ccc2c(c1)Sc1c(O)cccc1C2C1CCN(Cc2ccccn2)CC1 (stereo not shown) [19q, N-{2-[5-Hydroxy-9-(1-pyridin-2-ylmethyl-piperidin-4-yl)-9H-thioxanthen-3-yl]-phenyl}-acetamide] | – | – | 0.0001 µM | – |
| O=C(c1ccc2c(c1)Oc1ccccc1C2C1CCN(CCc2ccccc2)CC1)N1CC[C@H](O)C1 (stereo partly drawn) [6n, (3-(S)-Hydroxy-pyrrolidin-1-yl)-[9-(1-phenethyl-piperidin-4-yl)-9H-xanthen-3-yl]-methanone] | 7.05 µM | 3.4 µM | – | – |
| COc1cccc2c1Sc1cc(-c3cccnc3)ccc1C2C1CCNCC1 (stereo not shown) [9q, 3-(5-Methoxy-9-piperidin-4-yl-9H-thioxanthen-3-yl)-pyridine] | – | – | 0.0878 µM | – |
| COc1cccc2c1Sc1cc(-c3ccncc3)ccc1C2C1CCNCC1 (stereo not shown) [11q, 4-(5-Methoxy-9-piperidin-4-yl-9H-thioxanthen-3-yl)-pyridine] | – | – | 0.0681 µM | – |
| CC(=O)Nc1ccccc1-c1ccc2c(c1)Oc1c(O)cccc1C2C1CCN(Cc2cccs2)CC1 (stereo not shown) [6e, N-{2-[5-Hydroxy-9-(1-thiophen-2-ylmethyl-piperidin-4-yl)-9H-xanthen-3-yl]-phenyl}-acetamide] | – | – | 0.0001 µM | – |
| Oc1cccc2c1Oc1cc(-c3cccnc3)ccc1C2C1CCN(Cc2cccs2)CC1 (stereo not shown) [4i, 6-Pyridin-3-yl-9-(1-thiophen-2-ylmethyl-piperidin-4-yl)-9H-xanthen-4-ol] | – | – | 0.0967 µM | – |
| Oc1cccc2c1Oc1cc(-c3nnn[nH]3)ccc1C2C1CCNCC1 (stereo not shown) [4r, 9-Piperidin-4-yl-6-(1H-tetrazol-5-yl)-9H-xanthen-4-ol] | – | – | 0.014 µM | – |
| COc1cccc2c1Sc1cc(-c3ccccc3NC(C)=O)ccc1C2C1CCNCC1 (stereo not shown) [13q, N-[2-(5-Methoxy-9-piperidin-4-yl-9H-thioxanthen-3-yl)-phenyl]-acetamide] | 0.11 µM | – | – | – |
| CC(=O)Nc1ccccc1-c1ccc2c(c1)Sc1c(O)cccc1C2C1CCNCC1 (stereo not shown) [14q, N-[2-(5-Hydroxy-9-piperidin-4-yl-9H-thioxanthen-3-yl)-phenyl]-acetamide] | – | – | 0.0002 µM | – |
| C=CCN1CCC(C2c3ccccc3Oc3cc(C(=O)N4CC[C@H](O)C4)ccc32)CC1 (stereo partly drawn) [7n, [9-(1-Allyl-piperidin-4-yl)-9H-xanthen-3-yl]-(3-(S)-hydroxy-pyrrolidin-1-yl)-methanone] | 9.23 µM | – | – | – |
| Oc1cccc2c1Sc1cc(-c3cccnc3)ccc1C2C1CCNCC1 (stereo not shown) [10q, 9-Piperidin-4-yl-6-pyridin-3-yl-9H-thioxanthen-4-ol] | – | – | 0.0002 µM | – |

From patent US20060135522A1, “Tricyclic delta-opioid modulators” (priority 2004, published 2006)
